# Test results from patent publication US4416877A, “Anti-atherosclerotic pharmaceutical compositions containing diphosphonate compounds” (priority 1979, dated 1983).
# Like-named read-outs stand apart in the source and are kept apart here.
# Assays:
# renin = assay: Renin activity in normal monkeys treated for 60 days; format: in vivo, Cynomolgus monkeys
# Source text: In order to further elucidate the mechanism of the previously observed hypotensive activity, the renin-angiotensin system was also monitored in these animals at the same time. […] However at this dosage concentration the inhibition appeared to be time dependent.
# Oral LD50 toxicity = format: in vivo
# Source text: Following the extensive pharmacological screening of these compounds, using over 2000 animals, those showing the most potential were then subjected to toxicity testing for further selection relative to their activity/toxicity risk profiles
# By way of LD50 (Lethal Dose 50) the methyl diphosphonates were discovered to have a significant lower degree of toxicity. […] This represents a significant six fold difference in toxicity.
# α/β cholesterol ratio = assay: Lipoprotein changes produced by one dose in a Cynomolgus monkey; format: in vivo; settings: for α/β cholesterol ratio: 250 mg/kg p.o.
# [1] = test system: alpha/beta cholesterol ratio; assay: Comparison of clofibrate, gemfibrozil and fenofibrate to compound 16: alpha/beta cholesterol ratio in normal Wistar rats; format: in vivo; settings: 100 mg/kg for 10 days, n = 5
# Protocol: It should be noted that these diphosphonate compounds are different and novel in comparison to the classical hypolipidemic compounds as illustrated in Table V. The diphosphonate ester used for comparison was the only one to increase the alpha/beta cholesterol ratio in control rats.
# Each drug was administered at 100 mg/kg for 10 days
# aorta cholesterol = assay: Aorta cholesterol clearing activity in cholesterol pre-fed rabbits; format: in vivo; settings: 4 months; for Aortic Cholesterol Free/Ester Ratio / Aortic Cholesterol, Arch / Aortic Cholesterol, Thoracic / Aortic Cholesterol, Total / Aortic Phospholipids, Arch / Aortic Phospholipids, Thoracic / Aortic Phospholipids, Total: n = 5
# lipoprotein cholesterol = assay: Lipoprotein changes in normal Cynomolgus monkeys treated during 60 days; format: in vivo; settings: for Total Cholesterol / alpha Cholesterol / alpha/beta Cholesterol Ratio / beta Cholesterol: n = 7
# Protocol: To further test the long term efficacity of compound 16, normal male and female Cynomolgus monkeys were treated during 60 days (Table XIII).
# Dose: 25 mg/kg/day for 45 days 50 mg/kg/day for last 15 days
# blood pressure = assay: Cardiovascular changes (blood pressure, heart rate) produced by one dose in a Cynomolgus monkey; format: in vivo; settings: for Blood pressure / Heart Rate: 250 mg/kg p.o.
# [2] = Atheromateous surface involvement and intima thickening of aortas in cholesterol pre-fed rabbits; format: in vivo; settings: 4 months
# tissue cholesterol = assay: Effects in cholesterol fed rats (serum, liver and aorta lipids); format: in vivo; settings: for change in vivo at 200 mg/kg/day: Rattus norvegicus
# Protocol: Effects of diphosphonates of formula (I) in cholesterol fed rats
# In order to increase tissue cholesterol, especially liver, rats were fed a high fat-high cholesterol diet for 10 days to 3 months, with the following diet composition: casein 20%, butter 37%, cellulose 9.1%, dextrose 18,9%, cholesterol 4.5%, sodium cholate 1.8%, minerals 7.3%, vitamins 1%, choline 0.4%.
# The rats were then fed normal food and were treated for 10 days to 3 months with different compounds (200 mg/kg/day). Serum parameters described above were measured. Liver and aorta lipids were extracted according to J. Folch et al (J. Biochem. 226, 497, 1957). Total lipids were determined by the sulfophosphovanillic reaction (see N. Zolner and K. Kirsch, Z. Ges. exp. Med. 135, 545, 1962) and cholesterol by the Liebermann-Burchard reaction or appropriate enzymatic reaction.
# In above Table IV, results are given as % control values. Except for serum calcium, values which differ from control values by less than 15% are considered as non significant (NS).
# Serum free fatty acids, triglycerides and phospholipids were measured in normal rats (N) and rats previously fed a cholesterol diet for 10 days (C.F.)
# Serum α/β cholesterol, total lipids and cholesterol of liver and aorta were determined in normal rats (N) and rats which had previously been fed on high cholesterol diet (C.F.)
# [3] = 60 days, 50 mg/kg/day for last 15 days
# [4] = cholesterol fed rats (C.F), 200 mg/kg/day
smiles,measurement,setting,value
"COP(=O)(OC)OC(c1ccc(Cl)cc1)P(=O)(OC)OC (stereo not drawn) [Compound 16, Dimethyl α(dimethoxyphosphinyl) p-chlorobenzyl phosphate]",Renin Activity,renin; controls 5.9±0.9,0.3±0.1 ng AI /ml/h
same,inhibition of renin,renin; male and female monkeys,highly significant and almost complete inhibition of renin
same,LD50,"Oral LD50 toxicity; in vivo, oral",3040 mg/kg
same,"difference in toxicity (LD50, compound 16 vs compound 24)",Oral LD50 toxicity; oral LD50,six fold
same,α/β cholesterol ratio,α/β cholesterol ratio; +1h,0.71
same,α/β cholesterol ratio,α/β cholesterol ratio; +2h,0.82
same,α/β cholesterol ratio,α/β cholesterol ratio; +3h,0.83
same,α/β cholesterol ratio,α/β cholesterol ratio; +5h,0.89
same,α/β cholesterol ratio,α/β cholesterol ratio; +6h,0.92
same,α/β ratio,"α/β cholesterol ratio; additional administration, 5 days",0.88
same,increase in α/β cholesterol levels,"α/β cholesterol ratio; single oral dose 250 mg/kg, 6 hours",39%
same,alpha/beta Cholesterol Ratio,[1],9.69 ± 0.76
same,Aortic Cholesterol Free/Ester Ratio,aorta cholesterol; 100 mg/kg/day,0.5 ± 0.1
same,"Aortic Cholesterol, Arch",aorta cholesterol; 100 mg/kg/day,17.9 ± 2.9 mg/g
same,"Aortic Cholesterol, Thoracic",aorta cholesterol; 100 mg/kg/day,10.6 ± 2.8 mg/g
same,"Aortic Cholesterol, Total",aorta cholesterol; 100 mg/kg/day,20.8 ± 6.5 mg/Aorta
same,"Aortic Phospholipids, Arch",aorta cholesterol; 100 mg/kg/day,4.6 ± 1.4 mg/g
same,"Aortic Phospholipids, Thoracic",aorta cholesterol; 100 mg/kg/day,4.5 ± 1.5 mg/g
same,"Aortic Phospholipids, Total",aorta cholesterol; 100 mg/kg/day,6.5 ± 1.6 mg/Aorta
same,Aortic Cholesterol Free/Ester Ratio,aorta cholesterol; 200 mg/kg/day,0.4 ± 0.1
same,"Aortic Cholesterol, Arch",aorta cholesterol; 200 mg/kg/day,22.8 ± 3.4 mg/g
same,"Aortic Cholesterol, Thoracic",aorta cholesterol; 200 mg/kg/day,11.0 ± 4.2 mg/g
same,"Aortic Cholesterol, Total",aorta cholesterol; 200 mg/kg/day,18.3 ± 6.7 mg/Aorta
same,"Aortic Phospholipids, Arch",aorta cholesterol; 200 mg/kg/day,5.9 ± 1.3 mg/g
same,"Aortic Phospholipids, Thoracic",aorta cholesterol; 200 mg/kg/day,4.9 ± 1.9 mg/g
same,"Aortic Phospholipids, Total",aorta cholesterol; 200 mg/kg/day,7.9 ± 1.8 mg/Aorta
same,"pre-established cholesterol deposits, aorta",aorta cholesterol; cholesterol pre-fed rabbits,effectively decreased the pre-established cholesterol deposits
same,Total Cholesterol,"lipoprotein cholesterol; 45 days, 25 mg/kg/day",99 ± 8 mg/100 ml
same,alpha Cholesterol,"lipoprotein cholesterol; 45 days, 25 mg/kg/day",54 ± 5 mg/100 ml
same,alpha/beta Cholesterol Ratio,"lipoprotein cholesterol; 45 days, 25 mg/kg/day",1.17
same,beta Cholesterol,"lipoprotein cholesterol; 45 days, 25 mg/kg/day",46 ± 4 mg/100 ml
same,Total Cholesterol,lipoprotein cholesterol; [3],85 ± 7 mg/100 ml
same,alpha Cholesterol,lipoprotein cholesterol; [3],46 ± 4 mg/100 ml
same,alpha/beta Cholesterol Ratio,lipoprotein cholesterol; [3],1.09
same,beta Cholesterol,lipoprotein cholesterol; [3],41 ± 5 mg/100 ml
same,HDL (α-cholesterol) and α/β ratio,lipoprotein cholesterol; normal monkeys,augmentation in HDL (α-cholesterol) and a significant increase in α/β ratio
same,blood urea levels,"lipoprotein cholesterol; normal monkeys, treated vs controls",significantly lower
same,decrease of blood pressure,"blood pressure; 250 mg/kg oral, six hours period",at least 40%
same,Blood pressure,blood pressure; +1h,65 mmHg
same,Heart Rate,blood pressure; +1h,195 beat/min.
same,Blood pressure,blood pressure; +2h,70 mmHg
same,Blood pressure,blood pressure; +3h,100 mmHg
same,Heart Rate,blood pressure; +3h,195 beat/min.
same,Blood pressure,blood pressure; +5h,95 mmHg
same,Heart Rate,blood pressure; +5h,210 beat/min.
same,Blood pressure,blood pressure; +6h,105 mmHg
same,Heart Rate,blood pressure; +6h,210 beat/min.
same,Arch Intima/Media Ratio,"[2]; 100 mg/kg/day, n = 4",0.79
same,"Arterial Wall Thickness, Arch Intima","[2]; 100 mg/kg/day, n = 4",41.82 ± 0.93 Units in Area
same,"Arterial Wall Thickness, Thoracic Intima","[2]; 100 mg/kg/day, n = 4",7.66 ± 0.12 Units in Area
same,"Surface Involved in Atheromateous Plaques, Arch","[2]; 100 mg/kg/day, n = 4",88 ± 9%
same,"Surface Involved in Atheromateous Plaques, Thoracic","[2]; 100 mg/kg/day, n = 4",50 ± 15%
same,"Surface Involved in Atheromateous Plaques, Total Aorta","[2]; 100 mg/kg/day, n = 4",68 ± 12%
same,Thoracic Intima/Media Ratio,"[2]; 100 mg/kg/day, n = 4",0.23
same,aorta intimal thickening,[2]; cholesterol pre-fed rabbits,decreased aorta intimal thickening
same,atherosclerosis surface involvement,[2]; cholesterol pre-fed rabbits,decreased atherosclerosis surface involvement
same,change in vivo at 200 mg/kg/day,"tissue cholesterol; cholesterol fed rats (C.F), 200 mg/kg/day, read-out: Liver Chol. (% control values)",-57%
same,change in vivo at 200 mg/kg/day,"tissue cholesterol; cholesterol fed rats (C.F), 200 mg/kg/day, read-out: Liver Total Lipids (% control values)",-32%
same,liver total lipids and/or liver cholesterol,tissue cholesterol; cholesterol fed rats,decreased significantly
same,Aorta Chol. (% control values),tissue cholesterol; [4],-30%
same,Aorta Total Lipids (% control values),tissue cholesterol; [4],-37%
same,Serum Chol. α/β (% control values),tissue cholesterol; [4],+169%
